Where “and” joins values, the source holds several entries; their conditions need not be identical. Identical values can stand only once.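 Step 1: Grow cells in 96-well plates. Step 2: Expose to compound for 48 hours at 5 concentrations. Step 3: Interpolate endpoints linearly; if unreached, use highest concentration. GI50 marks 50% less growth. Definition used: TGI = concentration required for complete inhibition of growth.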
Assays:
Experiment in all cases: NCI anticancer screen, dose series, 48 h
SNB-19 CNS = tested on: SNB-19 CNS
SF-539 CNS = tested on: SF-539 CNS
SK-OV-3 ovarian = tested on: SK-OV-3 ovarian
MALME-3M melanoma = tested on: MALME-3M melanoma
OVCAR-3 ovarian = tested on: OVCAR-3 ovarian
SNB-75 CNS = tested on: SNB-75 CNS
KM12 colon = tested on: KM12 colon
MDA-MB-231 breast = tested on: MDA-MB-231 breast
SF-268 CNS = tested on: SF-268 CNS
HL-60(TB) leukemia = tested on: HL-60(TB) leukemia

Compound	GI50 (SNB-19 CNS)	TGI (SNB-19 CNS)	GI50 (SF-539 CNS)	TGI (SF-539 CNS)	GI50 (SK-OV-3 ovarian)	TGI (SK-OV-3 ovarian)	GI50 (MALME-3M melanoma)	TGI (MALME-3M melanoma)	GI50 (OVCAR-3 ovarian)	TGI (OVCAR-3 ovarian)	GI50 (SNB-75 CNS)	TGI (SNB-75 CNS)	GI50 (KM12 colon) [µM]	TGI (KM12 colon) [µM]	GI50 (MDA-MB-231 breast) [µM]	TGI (MDA-MB-231 breast) [µM]	GI50 (SF-268 CNS)	TGI (SF-268 CNS)	GI50 (HL-60(TB) leukemia)	TGI (HL-60(TB) leukemia)
CC1=Cc2cc3[n-]c(cc4nc(cc5[n-]c(cc1n2)c(C)c5CCC(=O)O)C(CCC(=O)O)=C4C)cc3C.[Cu+2]	> 1 µM and 11.9 µM	> 1 µM and 32.9 µM	< 1 µM and 3.52 µM	> 1 µM and 11.6 µM	> 1 µM and 18.8 µM	> 1 µM and 41.9 µM	> 1 µM and 7.39 µM	> 1 µM and 18.6 µM	> 1 µM and 26.5 µM	> 1 µM and 92.3 µM	> 1 µM and 8.39 µM	> 1 µM and 18.7 µM	> 92.2	> 100	22.6	50.3	10.8 µM and > 1 µM	36.1 µM and > 1 µM	> 1 µM and 22.2 µM	> 1 µM and 51.2 µM
Nc1c(C(=O)Nc2cccc3ccccc23)sc2nc3c(cc12)CCCCC3	0.662 µM	> 50 µM	0.458 µM	> 50 µM	1.47 µM	> 50 µM	31.9 µM	> 50 µM	0.542 µM	> 50 µM	0.161 µM	> 50 µM	0.76	> 50	1.27	> 50	2.82 µM	> 50 µM	0.202 µM	2.87 µM
COc1cc2c3c(n(CCCn4ccnc4)c(=O)c2cc1OC)-c1ccccc1C3=O	< 0.0285 µM	> 69 µM	< 0.0373 µM	0.441 µM	1.13 µM	–	1.06 µM	> 60.8 µM	< 0.0471 µM	0.484 µM	0.0681 µM	4.33 µM	0.126	5.03	0.254	5.19	< 0.0423 µM	> 100 µM	< 0.01 µM	0.102 µM
O=C(/C=C/C12c3ccccc3C(c3ccccc31)C1C(=O)NC(=O)C12)c1ccco1 (centres undefined)	2.19 µM	5.17 µM	2.04 µM	4.16 µM	4.01 µM	12.8 µM	2.35 µM	6.72 µM	2.47 µM	5.8 µM	3.44 µM	12.2 µM	2.36	5.99	3.85	15.4	2.72 µM	9.1 µM	1.58 µM	4.89 µM
COc1cc(N)ccc1Nc1c2ccccc2nc2ccccc12	15.9 µM	38.1 µM	12.1 µM	26.5 µM	12.5 µM	29.4 µM	14.6 µM	35.1 µM	12.2 µM	25.4 µM	10.8 µM	31.2 µM	7.56	20.5	13.1	28.6	14.2 µM	35.3 µM	5.49 µM	18.5 µM
Cc1ccc(-c2nc3nc(-c4ccc(Cl)cc4)nc(N4CCCNCC4)c3o2)cc1	1.7 µM	3.12 µM	1.71 µM	3.12 µM	1.75 µM	3.29 µM	1.7 µM	3.17 µM	1.94 µM	3.81 µM	1.2 µM	2.47 µM	1.93	3.81	1.83	3.37	1.92 µM	3.97 µM	1.4 µM	3.25 µM
COc1cc(/C=C/C(=O)CC(=O)/C=C/c2ccc(OC(=O)CCNC34CC5CC(CC(C5)C3)C4)c(OC)c2)ccc1OC(=O)CCNC12CC3CC(CC(C3)C1)C2	4.65 µM	18.4 µM	2.09 µM	4.81 µM	6.75 µM	27.2 µM	5.28 µM	17.9 µM	4.09 µM	21.9 µM	4.85 µM	22.5 µM	2.95	7.8	3.97	25.3	3.01 µM	13.2 µM	2.27 µM	9.27 µM
O=C(c1cccs1)c1c(C(F)(F)F)n([O-])c2cc(C(F)(F)F)ccc2[n+]1=O	0.348 µM	0.707 µM	0.195 µM	0.409 µM	0.758 µM	1.87 µM	0.347 µM	0.772 µM	0.333 µM	0.704 µM	0.491 µM	1.54 µM	0.183	0.38	0.177	0.345	0.163 µM	0.334 µM	< 0.0236 µM	0.135 µM
COc1ccc2c(c1)/C(=C/c1c(-c3ccc(C)cc3)nc3sc(C)cn13)C(=O)N2	20.6 µM	> 100 µM	20.3 µM	> 100 µM	23.9 µM	> 100 µM	25.2 µM	> 100 µM	15.5 µM	> 100 µM	11.8 µM	> 100 µM	23.1	> 100	13.3	> 100	11.1 µM	> 100 µM	4.85 µM	30.8 µM
